Patent US5869602A, “Peptide derivatives” (Novo Nordisk A/S, priority 1995, dated 1999)
Non-standard residues stand in square brackets, D forms with d. Residues, ends and D or L forms follow the SMILES beside them. *: point of attachment. Myristoyl = CCCCCCCCCCCCCC(=O)*; Nle = CCCC[C@H](N)C(=O)O; For = O=C*

Legend:
[1] = Determination of lipophilicity relative to human insulin (k'rel) by RP-HPLC; assay type: physicochemical; conditions: pH 7.3
Procedure: The lipophilicity of peptides and peptide derivatives relative to human insulin, k'rel, was measured on a LiChrosorb RP18 (5 μm, 4×250 mm) HPLC column by isocratic elution at 40° C. using mixtures of A) 0.1M sodium phosphate buffer, pH 7.3, containing 10% acetonitrile, and B) 50% acetonitrile in water as eluents. The elution was monitored by following the UV absorption of the eluate at 214 nm. Void time, t0, was found by injecting 0.1 mM sodium nitrate. Retention time for human insulin. tinsulin, was adjusted to at least 2t0 by varying the ratio between the A and B solutions. k'rel =(tderivate -t0)/(tinsulin -t0).

rabbits = experiment: Blood glucose in rabbits pre-treated with Insulin Actrapid, after SC injection; assay type: in vivo
Procedure: The resulting solution was sterilized by filtration and transferred to a vial.
Blood was sampled at times: -60, 0, 15, 30, 60, 120, 180 and 240 min, and the glucose concentration determined by the hexokinase method.

[2] = LiChrosorb RP18 HPLC, isocratic elution, 40° C.

CCCC[C@H](NC=O)C(=O)N[C@@H](CC(C)C)C(=O)N[C@@H](Cc1ccccc1)C(=O)N[C@@H](CCCC)C(=O)N[C@@H](Cc1ccc(O)cc1)C(=O)N[C@@H](CCCCN)C(=O)O [For-Nle-Leu-Phe-Nle-Tyr-Lys-OH] (HELM PEPTIDE1{[O=C[*:2]].[Nle].L.F.[Nle].Y.K}$$$$V2.0)
lipophilicity relative to human insulin, k'rel [1]: 2.3

CCCCCCCCCCCCCC(=O)NCCCC[C@H](NC(=O)[C@H](Cc1ccc(O)cc1)NC(=O)[C@@H](NC(=O)[C@H](Cc1ccccc1)NC(=O)[C@H](Cc1ccccc1)NC(=O)[C@H](Cc1c[nH]cn1)NC(=O)[C@H](Cc1ccccc1)NC(=O)[C@@H]1CCCN1C(=O)[C@H](Cc1c[nH]cn1)NC(=O)[C@@H]1CCCN1)C(C)C)C(=O)O [Example 3] (H-PHPFHFFVYK(Myristoyl)-OH)
lipophilicity relative to human insulin, k'rel [1, 2]: 5.3×10^3

CC(C)C[C@H](NC(=O)[C@H](Cc1ccccc1)NC(=O)CNC(=O)[C@@H](C)NC(=O)[C@@H](N)Cc1ccc(O)cc1)C(=O)N[C@@H](CCCCN)C(=O)O [H-Tyr-D-Ala-Gly-Phe-Leu-Lys-OH] (HELM PEPTIDE1{Y.[dA].G.F.L.K}$$$$V2.0)
lipophilicity relative to human insulin, k'rel [1, 2]: 3.0×10^-3

CCCCCCCCCCCCCC(=O)NCCCC[C@H](NC(=O)[C@H](Cc1ccc(O)cc1)NC(=O)[C@H](CCCC)NC(=O)[C@H](Cc1ccccc1)NC(=O)[C@H](CC(C)C)NC(=O)[C@H](CCCC)NC=O)C(=O)O [Example 1, For-Nle-Leu-Phe-Nle-Tyr-Lys(N^ε -tetradecanoyl)-OH] (For-[Nle]LF[Nle]YK(Myristoyl)-OH)
lipophilicity relative to human insulin, k'rel [1, 2]: 8.2×10^3

H-PHPFHFFVYK-OH
lipophilicity relative to human insulin, k'rel [1, 2]: 2.3×10^2

Lys^30 (Nε-decanoyl) glucagon [Example 6]
blood glucose concentration (rabbits; 0 min (time of SC injection of test substance)): 51 mg glucose/100 ml
blood glucose concentration (rabbits; 15 min after SC injection): 79 mg glucose/100 ml
blood glucose concentration (rabbits; 30 min after SC injection): 93 mg glucose/100 ml
blood glucose concentration (rabbits; 60 min after SC injection): 114 mg glucose/100 ml
blood glucose concentration (rabbits; 120 min after SC injection): 112 mg glucose/100 ml
blood glucose concentration (rabbits; 180 min after SC injection): 116 mg glucose/100 ml
blood glucose concentration (rabbits; 240 min after SC injection): 110 mg glucose/100 ml
blood glucose concentration (rabbits; -60 min (time of 2 IU Insulin Actrapid, before test substance)): 94 mg glucose/100 ml
blood glucose raising effect compared with glucagon (rabbits; SC, conclusion from the table): prolonged action
